Source: patent publication US20150368248A1, “2-SUBSTITUTED-6-BIARYLMETHYLAMINO-9-CYCLOPENTYL-9H-PURINE DERIVATIVES, USE THEREOF AS MEDICAMENTS, AND PHARMACEUTICAL COMPOSITIONS” (UNIVERZITA PALACKEHO V OLOMOUCI, priority 2013, published 2015)
Read-outs that look alike come from different tables or passages of the source.

Assays:
HepG2 = test: MTT cytotoxicity assay (Example 30); assay type: cell-based; conditions: Homo sapiens, HepG2; Table 3; read-out: Inhibitory concentration IC50, HepG2 (reference molecules)
From the text: Cytotoxicity of the compounds is the major property determining their anticancer effect in vivo. One of the parameters used, as the basis for cytotoxicity assays, is the metabolic activity of viable cells. For example, a microtiter assay, which uses (3-(4,5-Dimethylthiazol-2-yl)-2,5-diphenyltetrazolium bromide (MTT), is widely used to quantitate cell proliferation and cytotoxicity. For instance, this assay is used in drug screening programs and in chemosensitivity testing. Because only metabolically active living cells reduce MTT to correspond purple formazan dye, these assays detect viable cells exclusively. The quantity of reduced MTT corresponds to the number of vital cells in the culture.
(§1) We have been using the following cell lines: HUH-7 and PLC/PRF/5 cell lines were maintained in DMEM supplemented with 10% fetal bovine serum, penicillin (100 U/ml) and streptomycin (100 μg/ml). Unique HCC-1.2 (3p) and HCC-1.1 (3sp) cell lines (Zilj et al., 2009, Future Oncol, 5(8):1169-79) and Hep3B cells were cultivated in RPMI supplemented with 10% fetal bovine serum, penicillin (100 U/ml) and streptomycin (100 μg/ml). HepG2 cell line was maintained in EMEM supplemented with 10% fetal bovine serum, sodium pyruvate (0.11 g/1), penicillin (100 U/ml) and streptomycin (100 μg/ml). All cell lines were cultivated at 37° C. in 5% CO2. For cytotoxicity assays, 3000 cells (10000 cells in case of HepG2 cell line) were seeded into each well of 96 well plate and the next day tested compounds were added at various concentrations in triplicates. Three days after drug addition MTT stock solution (5 mg/ml) was added into each well and incubated for 4 h. After this incubation period, produced formazan was dissolved by DMSO and final absorbance was measured at 570 nm with Synergy H4 Hybrid Multi-Mode Microplate Reader.

[1] = tested on: human umbilical vein endothelial cells (HUVEC); test: HUVEC proliferation, Calcein AM; assay type: cell-based; conditions: Homo sapiens, HUVEC, read-out: Inhibitory concentration for HUVEC cells - IC50
Experimental: Novel 2-substituted-6-biarylmethylamino-9-cyclopentyl-9H-purine derivatives were tested for their potential anti-angiogenic properties; we analyzed its influence on the proliferation (Tab. 9), migration and tube formation of human umbilical vein endothelial cells (HUVEC). Confluent HUVECs were seeded in 96-well microtiter plates to detect their proliferation for 24 or 72 h using Calcein AM solution (Invitrogen) and a Fluoroskan Ascent microplate reader (Labsystems) as described previously (Krystof et al., 2011, Eur J Med Chem. 2011 September; 46(9):4289-94).

HUH-7 = test: MTT cytotoxicity assay (Example 30); assay type: cell-based; conditions: Homo sapiens, Huh-7; Table 3; read-out: Inhibitory concentration IC50, HUH-7 (reference molecules)
Experimental: (§2) Cytotoxicity of the compounds is the major property determining their anticancer effect in vivo. One of the parameters used, as the basis for cytotoxicity assays, is the metabolic activity of viable cells.
as §1, with “Unique HCC-1.2 (3p) and HCC-1.1 (3sp) cell lines (Zilj et al., 2009, Future Oncol, 5(8):1169-79) and Hep3B cells were cultivated in RPMI supplemented with 10% fetal bovine serum, penicillin (100 U/ml) and streptomycin (100 μg/ml).” left out

HCC-1.1 (3sp) = test: MTT cytotoxicity assay (Example 30); assay type: cell-based; conditions: Homo sapiens; Table 3; read-out: Inhibitory concentration IC50, AKH3sp (reference molecules)
Experimental: as §2
as §1, with “Unique HCC-1.2 (3p) and HCC-1.1 (3sp) cell lines (Zilj et al., 2009, Future Oncol, 5(8):1169-79) and Hep3B cells were cultivated in RPMI supplemented with 10% fetal bovine serum, penicillin (100 U/ml) and streptomycin (100 μg/ml).” left out

HCC-1.2 (3p) = test: MTT cytotoxicity assay (Example 30); assay type: cell-based; conditions: Homo sapiens, HCC-1.2; Table 3; read-out: Inhibitory concentration IC50, AKH3p (reference molecules)
Experimental: as §2
as §1, with “Unique HCC-1.2 (3p) and HCC-1.1 (3sp) cell lines (Zilj et al., 2009, Future Oncol, 5(8):1169-79) and Hep3B cells were cultivated in RPMI supplemented with 10% fetal bovine serum, penicillin (100 U/ml) and streptomycin (100 μg/ml).” left out

PLC/PRF/5 = test: MTT cytotoxicity assay (Example 30); assay type: cell-based; conditions: Homo sapiens, PLC-PRF-5; Table 3; read-out: Inhibitory concentration IC50, PLC/PRF/5 (reference molecules)
Experimental: as §2
as §1, with “Unique HCC-1.2 (3p) and HCC-1.1 (3sp) cell lines (Zilj et al., 2009, Future Oncol, 5(8):1169-79) and Hep3B cells were cultivated in RPMI supplemented with 10% fetal bovine serum, penicillin (100 U/ml) and streptomycin (100 μg/ml).” left out

Hep3B = test: MTT cytotoxicity assay (Example 30); assay type: cell-based, human; conditions: Homo sapiens, Hep3B; Table 3; read-out: Inhibitory concentration IC50, Hep3B (reference molecules)
Experimental: as §2
as §1, with “Unique HCC-1.2 (3p) and HCC-1.1 (3sp) cell lines (Zilj et al., 2009, Future Oncol, 5(8):1169-79) and Hep3B cells were cultivated in RPMI supplemented with 10% fetal bovine serum, penicillin (100 U/ml) and streptomycin (100 μg/ml).” left out

Compound | IC50 (HepG2) [µM] | IC50 ([1]; 24 h) [µM] | IC50 ([1]; 72 h) [µM] | IC50 (HUH-7) [µM] | IC50 (HCC-1.1 (3sp)) [µM] | IC50 (HCC-1.2 (3p)) [µM] | IC50 (PLC/PRF/5) [µM] | IC50 (Hep3B) [µM]
COc1cccc2c1C(=O)c1c(O)c3c(c(O)c1C2=O)C[C@@](O)(C(=O)CO)C[C@@H]3O[C@H]1C[C@H](N)[C@H](O)[C@H](C)O1 [doxorubicin, reference compound] | 1.38 | > 6.6 | > 6.6 | 1.25 | 0.27 | 0.54 | 0.67 | 0.46
CNC(=O)c1cc(Oc2ccc(NC(=O)Nc3ccc(Cl)c(C(F)(F)F)c3)cc2)ccn1 [sorafenib, reference compound] | 5.85 | > 50 | > 10 | 2.86 | 6.39 | 4.42 | 4.06 | 3.74
